Source: US9920074B2 (ACEA BIOSCIENCES INC., priority 2013, dated 2018)

What was measured:
Type in all cases: cell-based
[1] = tested on: Stat5 phosphorylation in NK-92 cells; assay: Western blotting assay for Stat5; details: NK92, 1 hour, IL-2 stimulation, read-out: Stat5 inhibition
Outline: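 NK-92 cells, maintained with IL-2, were pre-treated with compound for 1 h, then stimulated with IL-2 for 15 min. Lysates were western blotted for phospho- and total Jak3 and Stat5. IC50 came from densitometry of phospho-band intensity.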

[2] = target: T1, Btk (Tyr223) phosphorylation in Ramos cells (Homo sapiens, UniProt Q06187); assay: Western blotting assay for Btk (Example 73); details: 45 min, 6 μg/mL anti-IgM, read-out: Btk Inhibition
T1 construct: endogenous in cells; host or cells: Ramos cells (ATCC)
Outline: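 Ramos cells pre-treated with compound for 45 min at room temperature, then stimulated with 6 μg/mL anti-IgM for 30 min and lysed. Phospho-Btk (Tyr223) measured by Western blot band densitometry; IC50 fitted by non-linear regression.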

[3] = target: T2, Jak3 phosphorylation in NK-92 cells (Homo sapiens, UniProt P52333); assay: Western blotting assay for Jak3; details: 1 hour, IL-2 stimulation, read-out: Jak3 inhibition
T2 construct: endogenous in cells; host or cells: NK-92 cells (ATCC)
T2 sequence (P52333 1-1124): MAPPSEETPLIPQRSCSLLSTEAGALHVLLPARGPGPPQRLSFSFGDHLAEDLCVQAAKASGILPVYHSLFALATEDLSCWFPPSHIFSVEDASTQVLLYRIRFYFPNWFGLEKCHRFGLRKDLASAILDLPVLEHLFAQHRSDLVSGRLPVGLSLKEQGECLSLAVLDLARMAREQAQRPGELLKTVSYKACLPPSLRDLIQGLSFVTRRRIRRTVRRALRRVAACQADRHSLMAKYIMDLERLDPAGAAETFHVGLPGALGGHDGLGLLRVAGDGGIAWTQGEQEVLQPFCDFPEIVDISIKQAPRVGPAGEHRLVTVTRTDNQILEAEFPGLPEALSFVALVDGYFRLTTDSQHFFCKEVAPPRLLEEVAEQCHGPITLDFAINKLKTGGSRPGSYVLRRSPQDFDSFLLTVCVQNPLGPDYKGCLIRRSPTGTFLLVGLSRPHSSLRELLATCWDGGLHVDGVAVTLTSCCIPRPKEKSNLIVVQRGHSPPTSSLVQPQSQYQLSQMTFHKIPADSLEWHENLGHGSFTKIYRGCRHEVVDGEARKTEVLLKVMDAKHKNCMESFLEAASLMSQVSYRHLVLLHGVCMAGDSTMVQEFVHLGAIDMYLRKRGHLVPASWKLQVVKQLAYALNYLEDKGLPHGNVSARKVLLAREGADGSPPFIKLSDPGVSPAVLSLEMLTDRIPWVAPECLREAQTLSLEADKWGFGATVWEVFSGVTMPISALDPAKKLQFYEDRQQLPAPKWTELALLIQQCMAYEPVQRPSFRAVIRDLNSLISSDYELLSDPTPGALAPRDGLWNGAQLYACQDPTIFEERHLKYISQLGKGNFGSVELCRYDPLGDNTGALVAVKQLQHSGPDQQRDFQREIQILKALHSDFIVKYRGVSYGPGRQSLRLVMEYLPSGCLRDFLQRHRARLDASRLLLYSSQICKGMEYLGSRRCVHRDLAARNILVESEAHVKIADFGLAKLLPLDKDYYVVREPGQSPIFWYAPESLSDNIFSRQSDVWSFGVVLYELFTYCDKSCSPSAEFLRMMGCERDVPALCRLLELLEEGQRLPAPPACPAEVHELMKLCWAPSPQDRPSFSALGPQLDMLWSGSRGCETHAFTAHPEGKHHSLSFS
Description: All cell lines were obtained from the American Type Culture Collection and were maintained at 37° C. with 5% CO2. Ramos cell line was maintained in media supplemented with 10% fetal bovine serum, penicillin (100 units/mL) and streptomycin (100 μg/mL). NK-92 cell line was maintained in media supplemented with 10% fetal bovine serum and 10% horse serum, penicillin (100 units/mL) and streptomycin (100 μg/mL), IL-2 10 ng/mL. Goat F(ab′)2 Anti-Human IgM-UNLB was obtained from SouthernBiotech. IL-2 was obtained from Peprotech.
NK-92 cells were treated with compounds at the dosed indicated for 1 hour in incubator, followed by the IL-2 stimulation for 15 minutes. Cells were then collected and lysed to prepare the cellular extraction. Western blots were performed on cell lysate using Phospho-Jak3, Jak3, Phospho-Stat5, Stat5 antibodies (Cell Signaling Technology). The intensity of blotting band was acquired using Image Lab (Bio-Rad) software, and the IC50 of target was generated with GraphPad Prism.

T1 sequence (Q06187 whole entry): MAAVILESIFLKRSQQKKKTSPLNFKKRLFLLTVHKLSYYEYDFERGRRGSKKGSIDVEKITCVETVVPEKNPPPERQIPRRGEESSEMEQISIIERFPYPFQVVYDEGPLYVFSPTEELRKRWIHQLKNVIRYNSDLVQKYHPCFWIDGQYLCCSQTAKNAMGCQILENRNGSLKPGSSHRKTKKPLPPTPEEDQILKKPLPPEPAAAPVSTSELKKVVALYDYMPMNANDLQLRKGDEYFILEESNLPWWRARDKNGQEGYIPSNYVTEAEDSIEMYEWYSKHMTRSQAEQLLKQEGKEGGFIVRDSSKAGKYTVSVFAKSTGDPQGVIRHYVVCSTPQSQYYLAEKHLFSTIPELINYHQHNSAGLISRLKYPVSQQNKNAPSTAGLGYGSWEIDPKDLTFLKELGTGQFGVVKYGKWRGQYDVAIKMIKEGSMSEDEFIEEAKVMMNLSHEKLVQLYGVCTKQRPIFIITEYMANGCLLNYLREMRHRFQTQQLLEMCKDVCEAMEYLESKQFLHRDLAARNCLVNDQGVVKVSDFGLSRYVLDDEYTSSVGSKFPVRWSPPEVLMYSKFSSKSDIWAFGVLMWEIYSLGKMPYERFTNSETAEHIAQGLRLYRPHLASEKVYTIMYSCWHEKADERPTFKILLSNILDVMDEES

- IC50 [1]: ≥ 400 nM
- IC50 [2]: ≤ 10 nM
- IC50 [3]: ≤ 200 nM
SMILES: C=CC(=O)Nc1cccc(Oc2nc(Nc3ccc(N4CCN(C)CC4)cc3)ncc2OC)c1 [Compound I-1, N-(3-(5-methoxy-2-(4-(4-methylpiperazin-1-yl)phenylamino)pyrimidin-4-yloxy)phenyl)acrylamide]
